{"source": "paper PMC11521914", "about": "(Frontiers in Pharmacology, 2024)", "key": {"[1]": {"target": "T1, Fructose-1,6-bisphosphatase enzyme (FBPase) (Rattus norvegicus, UniProt P19112)", "T1 construct": "The reaction was started by adding the cytosolic supernatant previously diluted in buffer without substrate; from tissue; host or cells: rat liver, cytosolic supernatant", "T1 sequence (P19112 1-363)": "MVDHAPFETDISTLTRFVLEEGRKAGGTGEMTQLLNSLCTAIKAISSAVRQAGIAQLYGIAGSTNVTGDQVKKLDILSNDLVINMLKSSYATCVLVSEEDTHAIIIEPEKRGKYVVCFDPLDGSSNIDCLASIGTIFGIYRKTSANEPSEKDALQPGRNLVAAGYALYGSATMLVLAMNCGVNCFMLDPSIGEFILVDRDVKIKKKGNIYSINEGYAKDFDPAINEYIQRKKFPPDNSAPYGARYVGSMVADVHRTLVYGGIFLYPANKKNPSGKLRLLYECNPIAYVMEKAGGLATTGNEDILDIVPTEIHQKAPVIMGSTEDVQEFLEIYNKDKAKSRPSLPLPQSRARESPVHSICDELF", "assay": "Fructose-1,6-bisphosphatase (FBPase) enzyme activity inhibition assay", "assay_type": "biochemical", "details": "rat liver cytosolic supernatant, 0.1 mM FBP", "description": "(§1) Livers were removed from 18-h fasted healthy rats (3), which were previously anesthetized with 5% isoflurane ([Unit for Laboratory Animal Medicine, 2023]). Then, they were homogenized in buffer (250 mM sucrose, 1 mM EDTA, 5 mM HEPES, pH 7.4), filtered, and subsequently subjected to differential centrifugation as described by [Andrade-Cetto and Cárdenas-Vázquez (2010)]. Both the microsome-enriched supernatant (containing the enzyme complex glucose-6-phosphatase) and the cytosolic supernatant (containing the enzyme fructose-1,6-bisphosphatase) were collected and stored at −40°C until use.\nColorimetric assays were performed to detect the formation of a phosphomolybdate-malachite green complex with the inorganic phosphate released by the enzyme FBPase. […]\nThe assays were carried out with substrate-enriched buffer (5 µM EDTA, 5 mM MgCl2, 50 mM Tris-HCl, 0.1 mM FBP, pH 7.2) to which the inhibitors were added at different concentrations (AMP, EtOH-WCg, or junceic acid). […] Finally, the absorbance was measured at 630 nm.\n(§2) Finally, for in vitro experiments, absorbance values were transformed into activity percentages following the next formula: Enzyme activity %=AS−ASB/AC−ACB×100\n(§3) Where A S is the absorbance of the inhibitor sample at a specific concentration, A SB is the blank of the inhibitor sample, A C is the highest absorbance (without inhibitor), and A CB is the blank of the highest absorbance. […]"}, "[2]": {"target": "T2, Glucose-6-phosphatase enzyme (G6Pase) (Rattus norvegicus, UniProt P43428)", "T2 construct": "dilutions of the supernatant enriched with microsomes were prepared with buffer; from tissue; host or cells: rat liver, microsome-enriched fraction", "T2 sequence (P43428 1-357)": "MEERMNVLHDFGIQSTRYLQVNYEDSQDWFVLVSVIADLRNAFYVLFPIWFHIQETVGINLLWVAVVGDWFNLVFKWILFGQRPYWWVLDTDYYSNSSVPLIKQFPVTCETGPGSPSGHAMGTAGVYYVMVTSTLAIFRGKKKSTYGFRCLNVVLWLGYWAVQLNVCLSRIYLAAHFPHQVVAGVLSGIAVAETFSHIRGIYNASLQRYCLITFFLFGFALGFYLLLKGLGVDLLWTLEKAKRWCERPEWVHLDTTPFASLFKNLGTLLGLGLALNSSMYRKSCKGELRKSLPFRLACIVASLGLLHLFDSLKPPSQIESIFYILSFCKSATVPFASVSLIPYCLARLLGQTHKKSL", "assay": "Glucose-6-phosphatase (G6Pase) enzyme activity inhibition assay", "assay_type": "biochemical", "details": "rat liver microsome-enriched supernatant, 20 mM G6P", "description": "as §1\nColorimetric assays were carried out to detect the formation of a phosphomolybdate complex, which is proportional to the activity of the G6Pase enzyme complex. The reaction turns blue when G6Pase releases the inorganic phosphate and therefore the lower the color intensity, the greater the inhibition ([Arion, 1989]). […] Finally, the absorbance was measured at 830 nm.\nas §2, §3"}, "[3]": {"test_system": "normoglycemic (healthy) rats", "assay": "Fasting glucose and insulin levels, normoglycemic rats", "assay_type": "in vivo, Wistar rats", "details": "normoglycemic rats fasted 12 h, 2 h, glibenclamide 5 mg/kg", "description": "(§4) All procedures carried out on animals were approved by the Academic Ethics and Scientific Responsibility Commission (CEARC) of the School of Sciences, UNAM with protocol numbers PI_2021_08_23, PI_2022_21_05b, and PI_2022_22_07. Wistar rats of both sexes, 8 weeks old, were acquired and maintained under standard bioterium conditions (25°C, 55% humidity and 12:12 h light and dark photoperiod) with water and food ad libitum. Treatment administration (vehicle and samples) was performed orally with the help of an esophageal cannula. Blood samples were obtained from the tail vein and glucose measurements were performed in duplicate using Accu-Chek® Active glucometers.\n(§5) Normoglycemic (healthy) and hyperglycemic rats were used after 12 h of fasting selecting those with blood glucose levels between 90 and 110 mg/dL and 180–220 mg/dL, respectively. Before the administration of the treatment and every 30 min for 2 h, glucose levels were determined and additional blood samples (approximately 300 µL) were obtained, which were immediately centrifuged at 10,000 g for 10 min. […] Insulin quantification was performed using the immunoassay Rat/Mouse Insulin ELISA kit EZRMI-13KEMD Millipore/Merck ([Espinoza-Hernández et al., 2021]). […]\n(§6) Data are presented as mean ± standard error of the mean (SEM). […] Differences detected with p < 0.05 were considered statistically significant. […]"}, "[4]": {"test_system": "STZ-NA-hyperglycemic rats", "assay": "Evaluation of the hypoglycemic effect (acute glucose curves)", "assay_type": "in vivo, Wistar rats", "description": "as §4\nIn summary hyperglycemia was induced as described by [Masiello et al. (1998)], rats fasted for 12 h were administered intraperitoneally with 150 mg/kg b. w. of NA and, 15 min later, 65 mg/kg b. w. of STZ was injected intravenously. After 2 weeks, animals with blood glucose values above 180 mg/dL were selected to perform the tests described below.\nBasal glucose levels were assessed before giving the treatments. Immediately after the administration of treatments, glucose levels were monitored every hour for 3 h ([Espinoza-Hernández et al., 2021]). Thirty rats fasted for 4 h were divided into five groups (n = 6 each group): 1. Normoglycemic Control (N), administered with physiological solution (vehicle); 2. Hyperglycemic Control (H), which received physiological solution; 3. Hyperglycemic Control + glibenclamide, which was administered with 5 mg/kg b. w. (Aurax®) (HGli) ([Berridge et al., 1992]); 4. Hyperglycemic Group + EtOH-WCg, which received 30 mg/kg b. w. (HCg); and 5. Hyperglycemic Group + junceic acid, administered with 5.6 mg/kg b. w. (HJa)."}, "[5]": {"test_system": "STZ-NA-hyperglycemic rats", "assay": "Fasting glucose and insulin levels, hyperglycemic rats", "assay_type": "in vivo, Wistar rats", "details": "hyperglycemic rats fasted 12 h, 2 h; glibenclamide 5 mg/kg, EtOH-WCg 30 mg/kg, junceic acid 5.6 mg/kg b.w.", "description": "as §4, with “glucometers. […]” for “glucometers.”\nas §5, §6"}, "[6]": {"test_system": "normoglycemic (healthy) rats", "assay": "Insulin tolerance tests (insulin sensitivity assessment)", "assay_type": "in vivo, Wistar rats", "details": "healthy rats fasted 4 h", "description": "as §4\nFirst, basal glucose was determined and, immediately after, treatments were given. Forty-5 min later, glucose levels were measured and then isophane insulin (Aurax®; 0.5 U/kg b. w.) was administered intraperitoneally. Glucose levels were monitored at minutes 15, 30, 60, and 120 after insulin injection. In total, 24 rats were divided into four groups (n = 6 each group): 1. Control, which received physiological solution (C); 2. […]\nWhere Tx is the value of glucose or insulin at each time and T0 is the baseline value. Next, AUC were calculated and compared by applying t tests for intergroup comparisons and repeated measures ANOVA followed by Dunnett post hoc tests for intragroup comparisons. […]"}, "[7]": {"test_system": "STZ-NA-hyperglycemic rats", "assay": "Postprandial glucose and insulin levels (glucose tolerance test), hyperglycemic rats", "assay_type": "in vivo, Wistar rats", "details": "glucose load 2 g/kg", "description": "as §4, with “glucometers. […]” for “glucometers.”\nas §5, §6"}, "[8]": {"test_system": "normoglycemic (healthy) rats", "assay": "Postprandial glucose and insulin levels (glucose tolerance test), normoglycemic rats", "assay_type": "in vivo, Wistar rats", "details": "glucose load 2 g/kg", "description": "as §4, §5, §6"}}}
{"molecule": "Nc1ncnc2c1ncn2[C@@H]1O[C@H](COP(=O)(O)O)[C@@H](O)[C@H]1O.O", "note": "[AMP, adenosine 5′-monophosphate monohydrate]", "values": [{"measurement": "IC50", "setting": "[1]", "result": 95, "unit": "µM"}, {"measurement": "Inhibition %", "setting": "[1]", "result": 96, "unit": "%"}]}
{"molecule": "O=C(/C=C/c1ccc(O)c(O)c1)O[C@@H]1C[C@](O)(C(=O)O)C[C@@H](O)[C@H]1O", "note": "[Clorogenic acid, chlorogenic acid]", "values": [{"measurement": "IC50", "setting": "[2]", "result": 346, "unit": "µM"}, {"measurement": "Inhibition %", "setting": "[2]", "result": 83, "unit": "%"}]}
{"molecule": "COc1ccc(Cl)cc1C(=O)NCCc1ccc(S(=O)(=O)NC(=O)NC2CCCCC2)cc1", "note": "[glibenclamide]", "values": [{"measurement": "effect on plasma insulin in fasting", "setting": "[3]; EtOH-WCg 30 mg/kg b.w.", "result": "increase in plasma insulin"}, {"measurement": "effect on blood glucose in fasting", "setting": "[3]; EtOH-WCg 30 mg/kg, junceic acid 5.6 mg/kg b.w.", "result": "significant hypoglycemic effect"}, {"measurement": "hypoglycemic effect compared with the hyperglycemic control group (H)", "setting": "[4]; 60 min after administration, maintained throughout the experiment, p < 0.05", "result": "significant hypoglycemic effect"}, {"measurement": "glucose decrease at the end of the study", "setting": "[4]; STZ-NA-hyperglycemic rats fasted 4 h, oral, 3 h curve, glibenclamide 5 mg/kg, EtOH-WCg 30 mg/kg, junceic acid 5.6 mg/kg b.w.", "result": 57, "unit": "%"}, {"measurement": "decrease of total blood glucose (AUC) compared with control (H)", "setting": "[4]; STZ-NA-hyperglycemic rats fasted 4 h, oral, glibenclamide 5 mg/kg, EtOH-WCg 30 mg/kg, junceic acid 5.6 mg/kg b.w.", "result": 65, "unit": "%"}, {"measurement": "effect on blood glucose in fasting", "setting": "[5]", "result": "significant hypoglycemic effect"}, {"measurement": "effect on plasma insulin in fasting", "setting": "[5]", "result": "increase in plasma insulin"}]}
{"molecule": "CCc1ccc(CCOc2ccc(CC3SC(=O)NC3=O)cc2)nc1", "note": "(centres unmarked) [pioglitazone]", "values": [{"measurement": "inverse AUC and KITT analyzes compared with control (C)", "setting": "[6]; insulin tolerance test, 120 min", "result": "eliminated more glucose throughout the experiment at a higher removal rate than C"}, {"measurement": "potentiation of the glucose-lowering effect of insulin compared with control (C)", "setting": "[6]; isophane insulin 0.5 U/kg i.p. 45 min after treatment, pioglitazone 20 mg/kg, EtOH-WCg 30 mg/kg, junceic acid 5.6 mg/kg b.w.", "result": "exacerbated the glucose-lowering effect of insulin"}]}
{"molecule": "CCOc1cc(CC(=O)N[C@@H](CC(C)C)c2ccccc2N2CCCCC2)ccc1C(=O)O", "note": "[repaglinide]", "values": [{"measurement": "increase of insulin levels", "setting": "[7]; at 30 min, repaglinide 1 mg/kg b.w.", "result": "under 25%"}, {"measurement": "effect on postprandial hyperglycemia after the glucose load", "setting": "[7]; repaglinide 1 mg/kg, EtOH-WCg 30 mg/kg, junceic acid 5.6 mg/kg b.w.", "result": "significantly decreased the hyperglycemic peak"}, {"measurement": "increase of insulin levels", "setting": "[8]; healthy rats, at 30 min, repaglinide 1 mg/kg b.w.", "result": "more than 500%"}, {"measurement": "effect on the hyperglycemic peak after the glucose load", "setting": "[8]; normoglycemic rats, repaglinide 1 mg/kg, EtOH-WCg 30 mg/kg, junceic acid 5.6 mg/kg b.w.", "result": "significantly decreased the hyperglycemic peak"}]}
